Article PMC11233931, “Remodeling tumor‐associated macrophage for anti‐cancer effects by rational design of irreversible inhibition of mitogen‐activated protein kinase‐activated protein kinase 2” (MedComm, 2024)

Columns and labels:
Assay in all cases: Eurofins kinase selectivity profile against 380 other human recombinant kinases (Table S2)
Format in all cases: biochemical
[1] = target: T1, 380 human recombinant protein kinases (Homo sapiens, UniProt Q99755); settings: PIP5K1α(h), read-out: Inhibition rate (%)
T1 construct: purchased Eurofins (Celle Lévescault)
T1 sequence (Q99755 whole entry): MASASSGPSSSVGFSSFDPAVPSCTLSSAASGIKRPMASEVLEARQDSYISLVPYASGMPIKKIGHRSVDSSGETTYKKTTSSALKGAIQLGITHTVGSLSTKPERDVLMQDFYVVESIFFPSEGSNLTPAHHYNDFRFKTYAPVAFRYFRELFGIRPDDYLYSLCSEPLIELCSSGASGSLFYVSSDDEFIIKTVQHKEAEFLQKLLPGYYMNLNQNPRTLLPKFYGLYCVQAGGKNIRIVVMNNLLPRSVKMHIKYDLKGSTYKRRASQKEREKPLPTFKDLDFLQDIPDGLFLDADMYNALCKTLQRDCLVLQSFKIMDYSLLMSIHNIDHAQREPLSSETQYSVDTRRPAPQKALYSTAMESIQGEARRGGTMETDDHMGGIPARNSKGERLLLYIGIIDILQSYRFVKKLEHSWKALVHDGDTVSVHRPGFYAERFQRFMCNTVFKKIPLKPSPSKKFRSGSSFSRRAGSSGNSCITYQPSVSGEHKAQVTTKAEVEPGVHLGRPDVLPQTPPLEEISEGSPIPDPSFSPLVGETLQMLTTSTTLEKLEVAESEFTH
Method in brief: (§1)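 The inhibitor was sent to a contract lab and screened at various concentrations against 380 human recombinant protein kinases. This served as a counter-screen for MK2 specificity.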

[2] = target: T2, 380 human recombinant protein kinases (Homo sapiens, UniProt Q96RG2); settings: PASK(h), read-out: Inhibition rate
T2 construct: purchased Eurofins (Celle Lévescault)
T2 sequence (Q96RG2 whole entry): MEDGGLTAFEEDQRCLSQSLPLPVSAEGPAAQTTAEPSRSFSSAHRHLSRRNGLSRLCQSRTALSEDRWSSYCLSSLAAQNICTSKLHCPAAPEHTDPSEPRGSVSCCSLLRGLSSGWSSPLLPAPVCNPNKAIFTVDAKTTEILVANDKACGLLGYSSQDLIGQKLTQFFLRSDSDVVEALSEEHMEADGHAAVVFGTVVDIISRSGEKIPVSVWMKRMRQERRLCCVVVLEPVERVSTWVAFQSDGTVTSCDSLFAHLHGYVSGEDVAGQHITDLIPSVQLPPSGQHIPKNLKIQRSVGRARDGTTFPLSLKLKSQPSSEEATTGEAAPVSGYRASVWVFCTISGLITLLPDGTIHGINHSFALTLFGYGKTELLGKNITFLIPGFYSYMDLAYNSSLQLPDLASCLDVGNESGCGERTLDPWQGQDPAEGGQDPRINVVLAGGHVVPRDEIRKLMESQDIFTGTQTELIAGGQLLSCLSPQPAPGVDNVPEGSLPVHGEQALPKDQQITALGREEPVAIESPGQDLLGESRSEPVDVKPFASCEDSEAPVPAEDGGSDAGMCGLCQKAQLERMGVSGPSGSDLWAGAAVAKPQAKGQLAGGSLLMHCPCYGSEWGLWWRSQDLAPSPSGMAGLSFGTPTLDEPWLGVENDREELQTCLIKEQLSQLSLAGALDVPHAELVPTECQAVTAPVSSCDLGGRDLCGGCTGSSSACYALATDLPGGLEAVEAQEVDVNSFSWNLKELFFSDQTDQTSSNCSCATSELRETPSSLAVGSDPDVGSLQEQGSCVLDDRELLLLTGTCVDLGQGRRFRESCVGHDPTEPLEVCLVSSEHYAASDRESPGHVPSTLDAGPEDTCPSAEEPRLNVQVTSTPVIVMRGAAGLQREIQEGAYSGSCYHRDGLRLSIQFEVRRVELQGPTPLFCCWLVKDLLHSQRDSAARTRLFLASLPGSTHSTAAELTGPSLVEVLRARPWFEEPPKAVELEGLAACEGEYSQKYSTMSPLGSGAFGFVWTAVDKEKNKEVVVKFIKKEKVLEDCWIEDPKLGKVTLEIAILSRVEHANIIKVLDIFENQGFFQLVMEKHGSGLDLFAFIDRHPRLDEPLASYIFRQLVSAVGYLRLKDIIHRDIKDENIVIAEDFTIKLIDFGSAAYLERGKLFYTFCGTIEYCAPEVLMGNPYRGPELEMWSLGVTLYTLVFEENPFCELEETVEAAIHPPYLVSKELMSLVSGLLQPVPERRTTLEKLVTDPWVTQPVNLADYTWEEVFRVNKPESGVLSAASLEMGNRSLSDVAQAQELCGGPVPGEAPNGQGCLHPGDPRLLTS
Method in brief: as §1

[3] = target: T3, 380 human recombinant protein kinases (Homo sapiens, UniProt P09619); settings: PDGFRβ(h), read-out: Inhibition rate
T3 construct: purchased Eurofins (Celle Lévescault)
Method in brief: as §1

[4] = target: T4, 380 human recombinant protein kinases (Homo sapiens, UniProt Q9HC98); settings: NEK6(h), read-out: Inhibition rate
T4 construct: purchased Eurofins (Celle Lévescault)
T4 sequence (Q9HC98 whole entry): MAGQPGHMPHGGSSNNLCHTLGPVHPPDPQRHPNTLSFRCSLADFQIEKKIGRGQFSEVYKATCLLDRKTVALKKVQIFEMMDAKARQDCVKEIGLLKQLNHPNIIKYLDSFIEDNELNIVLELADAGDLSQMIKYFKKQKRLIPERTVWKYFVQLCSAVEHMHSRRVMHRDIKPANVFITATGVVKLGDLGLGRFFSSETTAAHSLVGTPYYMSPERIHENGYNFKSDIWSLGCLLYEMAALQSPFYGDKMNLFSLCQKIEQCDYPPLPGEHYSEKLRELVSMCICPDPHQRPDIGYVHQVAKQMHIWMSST
Method in brief: as §1

[5] = target: T5, 380 human recombinant protein kinases (Homo sapiens, UniProt Q9H4B4); settings: Plk3(h), read-out: Inhibition rate
T5 construct: purchased Eurofins (Celle Lévescault)
T5 sequence (Q9H4B4 whole entry): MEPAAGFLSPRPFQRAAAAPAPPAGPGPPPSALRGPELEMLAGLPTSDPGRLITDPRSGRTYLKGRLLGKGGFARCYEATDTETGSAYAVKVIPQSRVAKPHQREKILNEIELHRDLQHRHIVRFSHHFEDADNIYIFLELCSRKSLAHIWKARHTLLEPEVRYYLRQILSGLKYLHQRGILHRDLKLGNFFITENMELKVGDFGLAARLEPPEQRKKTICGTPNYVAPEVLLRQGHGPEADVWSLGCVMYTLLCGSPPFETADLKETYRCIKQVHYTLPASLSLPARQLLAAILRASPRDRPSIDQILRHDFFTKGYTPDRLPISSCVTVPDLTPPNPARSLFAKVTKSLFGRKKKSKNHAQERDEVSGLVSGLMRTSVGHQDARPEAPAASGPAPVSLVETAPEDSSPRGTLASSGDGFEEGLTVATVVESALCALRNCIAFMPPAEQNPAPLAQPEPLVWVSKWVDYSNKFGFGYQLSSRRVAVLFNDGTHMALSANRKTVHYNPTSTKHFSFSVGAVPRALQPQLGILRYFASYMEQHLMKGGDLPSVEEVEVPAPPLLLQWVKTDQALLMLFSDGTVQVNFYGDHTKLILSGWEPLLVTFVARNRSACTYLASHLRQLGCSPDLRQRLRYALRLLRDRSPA
Method in brief: as §1

[6] = target: T6, 380 human recombinant protein kinases (Homo sapiens, UniProt Q02156); settings: PKCε(h), read-out: Inhibition rate
T6 construct: purchased Eurofins (Celle Lévescault)
T6 sequence (Q02156 1-737): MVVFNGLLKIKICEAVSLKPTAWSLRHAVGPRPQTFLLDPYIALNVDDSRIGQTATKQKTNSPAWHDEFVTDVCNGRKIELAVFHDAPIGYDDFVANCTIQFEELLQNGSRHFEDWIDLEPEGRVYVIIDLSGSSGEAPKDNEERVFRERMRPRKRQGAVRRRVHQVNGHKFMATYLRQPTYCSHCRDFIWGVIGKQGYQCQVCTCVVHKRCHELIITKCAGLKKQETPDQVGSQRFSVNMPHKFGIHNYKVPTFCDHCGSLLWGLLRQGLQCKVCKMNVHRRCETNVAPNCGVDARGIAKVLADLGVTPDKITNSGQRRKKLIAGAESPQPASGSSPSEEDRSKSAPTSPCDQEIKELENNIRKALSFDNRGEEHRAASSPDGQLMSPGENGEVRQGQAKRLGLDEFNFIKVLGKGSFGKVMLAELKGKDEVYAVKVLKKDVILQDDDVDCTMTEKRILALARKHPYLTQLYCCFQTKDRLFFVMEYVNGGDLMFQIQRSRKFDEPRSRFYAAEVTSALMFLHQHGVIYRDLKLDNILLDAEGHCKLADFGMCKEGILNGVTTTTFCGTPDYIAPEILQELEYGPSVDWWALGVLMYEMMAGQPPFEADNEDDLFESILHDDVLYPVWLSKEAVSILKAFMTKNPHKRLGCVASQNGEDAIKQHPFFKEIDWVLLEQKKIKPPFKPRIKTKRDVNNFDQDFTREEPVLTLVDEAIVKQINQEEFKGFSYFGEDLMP
Method in brief: as §1

[7] = target: T7, 380 human recombinant protein kinases (Homo sapiens, UniProt P78368); settings: CK1γ2(h), read-out: Inhibition rate
T7 construct: purchased Eurofins (Celle Lévescault)
T7 sequence (P78368 whole entry): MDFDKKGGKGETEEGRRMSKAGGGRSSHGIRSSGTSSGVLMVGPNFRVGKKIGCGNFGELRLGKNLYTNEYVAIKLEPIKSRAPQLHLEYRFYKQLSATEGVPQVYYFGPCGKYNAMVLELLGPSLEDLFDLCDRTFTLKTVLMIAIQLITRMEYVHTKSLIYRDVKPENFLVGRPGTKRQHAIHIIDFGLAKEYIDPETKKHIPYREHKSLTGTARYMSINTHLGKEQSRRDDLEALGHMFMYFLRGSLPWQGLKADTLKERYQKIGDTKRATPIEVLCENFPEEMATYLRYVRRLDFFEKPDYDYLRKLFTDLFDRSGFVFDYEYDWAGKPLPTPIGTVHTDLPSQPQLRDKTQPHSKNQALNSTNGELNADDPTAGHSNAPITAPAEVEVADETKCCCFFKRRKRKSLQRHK
Method in brief: as §1

[8] = target: T8, 380 human recombinant protein kinases (Homo sapiens, UniProt Q9Y5S2); settings: MRCKβ(h), read-out: Inhibition rate
T8 construct: purchased Eurofins (Celle Lévescault)
Method in brief: as §1

[9] = target: T9, 380 human recombinant protein kinases (Homo sapiens, UniProt Q16654); settings: PDHK4(h), read-out: Inhibition rate
T9 construct: purchased Eurofins (Celle Lévescault)
T9 sequence (Q16654 whole entry): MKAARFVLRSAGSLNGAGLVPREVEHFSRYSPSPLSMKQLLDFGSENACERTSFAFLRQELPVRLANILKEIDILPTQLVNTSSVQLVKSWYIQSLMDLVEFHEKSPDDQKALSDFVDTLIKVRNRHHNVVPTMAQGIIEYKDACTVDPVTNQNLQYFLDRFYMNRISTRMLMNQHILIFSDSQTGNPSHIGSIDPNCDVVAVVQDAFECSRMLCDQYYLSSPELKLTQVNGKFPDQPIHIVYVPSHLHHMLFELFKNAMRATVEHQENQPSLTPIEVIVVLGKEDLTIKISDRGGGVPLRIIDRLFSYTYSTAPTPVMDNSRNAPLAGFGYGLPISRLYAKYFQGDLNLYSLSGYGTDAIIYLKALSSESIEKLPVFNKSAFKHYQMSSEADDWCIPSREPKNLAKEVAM
Method in brief: as §1

[10] = target: T10, 380 human recombinant protein kinases (Homo sapiens, UniProt P07949); settings: Ret(h), read-out: Inhibition rate
T10 construct: purchased Eurofins (Celle Lévescault)
T10 sequence (P07949 29-1114): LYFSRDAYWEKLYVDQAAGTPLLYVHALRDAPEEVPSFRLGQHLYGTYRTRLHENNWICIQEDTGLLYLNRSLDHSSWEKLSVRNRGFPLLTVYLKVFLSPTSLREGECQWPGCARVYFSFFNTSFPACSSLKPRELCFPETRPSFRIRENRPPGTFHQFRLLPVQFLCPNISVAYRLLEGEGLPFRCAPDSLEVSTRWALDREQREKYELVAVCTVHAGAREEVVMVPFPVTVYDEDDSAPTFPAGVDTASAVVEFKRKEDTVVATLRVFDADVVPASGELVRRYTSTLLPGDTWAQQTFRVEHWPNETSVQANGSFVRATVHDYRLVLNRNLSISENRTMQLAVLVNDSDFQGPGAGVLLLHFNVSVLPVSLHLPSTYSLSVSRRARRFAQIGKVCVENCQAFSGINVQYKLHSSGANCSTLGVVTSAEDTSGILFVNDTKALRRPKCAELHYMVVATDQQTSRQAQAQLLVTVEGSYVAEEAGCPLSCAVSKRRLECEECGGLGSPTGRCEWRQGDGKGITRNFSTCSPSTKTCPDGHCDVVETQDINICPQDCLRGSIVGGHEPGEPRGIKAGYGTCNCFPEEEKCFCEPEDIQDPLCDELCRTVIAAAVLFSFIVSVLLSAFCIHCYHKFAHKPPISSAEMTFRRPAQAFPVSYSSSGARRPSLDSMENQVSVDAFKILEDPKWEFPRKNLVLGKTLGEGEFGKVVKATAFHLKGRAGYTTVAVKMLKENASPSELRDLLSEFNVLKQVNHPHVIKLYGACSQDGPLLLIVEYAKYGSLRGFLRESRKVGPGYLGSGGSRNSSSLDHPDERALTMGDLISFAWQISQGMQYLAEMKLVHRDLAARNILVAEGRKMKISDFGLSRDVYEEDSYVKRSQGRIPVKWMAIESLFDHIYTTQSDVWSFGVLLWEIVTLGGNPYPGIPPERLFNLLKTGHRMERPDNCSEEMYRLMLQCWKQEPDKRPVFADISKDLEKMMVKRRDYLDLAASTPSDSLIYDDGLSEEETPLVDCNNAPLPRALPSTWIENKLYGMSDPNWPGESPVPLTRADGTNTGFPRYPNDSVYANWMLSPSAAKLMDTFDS
Method in brief: as §1

C=CC(=O)Nc1cc(-c2cc(-c3cc4c([nH]3)CCNC4=O)ccn2)ccc1OC(F)(F)F [compound 11]
inhibition at 0.01 µM ([1]; 10 nM): -4% | inhibition at 0.1 µM ([1]; 100 nM): -3% | inhibition at 1 µM ([1]; 1000 nM): -2% | inhibition at 0.01 µM ([2]; 10 nM): 13% | inhibition at 0.1 µM ([2]; 100 nM): 4% | inhibition at 1 µM ([2]; 1000 nM): 12% | inhibition at 0.01 µM ([3]; 10 nM): 0% | inhibition at 0.1 µM ([3]; 100 nM): -16% | inhibition at 1 µM ([3]; 1000 nM): -11% | inhibition at 0.01 µM ([4]; 10 nM): -4% | inhibition at 0.1 µM ([4]; 100 nM): -5% | inhibition at 1 µM ([4]; 1000 nM): -3% | inhibition at 0.01 µM ([5]; 10 nM): 10% | inhibition at 0.1 µM ([5]; 100 nM): 6% | inhibition at 1 µM ([5]; 1000 nM): 15% | inhibition at 0.01 µM ([6]; 10 nM): 1% | inhibition at 0.1 µM ([6]; 100 nM): 12% | inhibition at 1 µM ([6]; 1000 nM): 13% | inhibition at 0.01 µM ([7]; 10 nM): -7% | inhibition at 0.1 µM ([7]; 100 nM): 29% | inhibition at 1 µM ([7]; 1000 nM): 74% | inhibition at 0.01 µM ([8]; 10 nM): 8% | inhibition at 0.1 µM ([8]; 100 nM): 0% | inhibition at 1 µM ([8]; 1000 nM): 10% | inhibition at 0.01 µM ([9]; 10 nM): -5% | inhibition at 0.1 µM ([9]; 100 nM): -7% | inhibition at 1 µM ([9]; 1000 nM): -19% | inhibition at 0.01 µM ([10]; 10 nM): 12% | inhibition at 0.1 µM ([10]; 100 nM): 2% | inhibition at 1 µM ([10]; 1000 nM): 1%
